Source: EP0726263A2, “Herbicidal (1,3,4)oxadiazoles and thiadiazoles” (American Cyanamid Company, priority 1995, dated 1996)

Key:
Format in all cases: in vivo
Ambrosia artemisifolia [1] = assay: Herbicidal activity, preemergence test; conditions: pre; sprayed onto soil, 800 g of active material per hectare; evaluated 3 weeks after treatment
Protocol: (§1) To evaluate their herbicidal activity, compounds according to the invention are tested using a representative range of plants: TRZAW Triticum aestivum HORVW Hordeum vulgare ZEAMX Zea mays GOSHI Gossypium hirsutum HELAN Helianthus annuus GLYMA Glycine max ALOMY Alopecurus myosuroides SETVI Setaria viridis ECHCG Echinochloa crus-galli GALAP Galium aparine STEME Stellaria media VERPE Veronica persica VIOAR Viola arvensis IPOHE Ipomoea hederacea LAMPU Lamium purpureum PAPRH Papaver rhoeas MATIN Matricaria inodora AMARE Amaranthus retroflexus ABUTH Abutilon theophrasti AMBEL Ambrosia artemisifolia CHEAL Chenopodium album
(§2) The tests fall into two categories, preemergence and postemergence. The preemergence tests involve spraying a liquid formulation of the compound onto the soil in which the seeds have recently been sown. The postemergence tests involve spraying a liquid formulation of the compound onto seedling plants.
(§3) The soil used in the tests is a prepared horticultural loam.
(§4) The formulations used in the tests are prepared from solutions of the test compounds in acetone containing 0.4% by weight of an alkylphenol/ethylene oxide condensate available under the trade mark TRITON X-155. These acetone solutions are diluted with water and the resulting formulations applied at dosage levels corresponding to 800 g of active material per hectare in a volume equivalent to 900 litres per hectare.
(§5) In the preemergence tests untreated sown soil and in the postemergence tests untreated soil bearing seedling plants are used as controls.
(§6) Results of herbicide evaluation are expressed on a rating scale (0-9). The scale is based upon a visual observation of plant stand, vigor, malformation, size, chlorosis, and general plant appearance as compared to a control. Preemergence and postemergence treatments are evaluated at 3 and 2 weeks after treatment, respectively.

Triticum aestivum [2] = assay: Herbicidal activity, preemergence test; conditions: pre; sprayed onto soil, 800 g of active material per hectare; evaluated 3 weeks after treatment
Protocol: as §1, §2, §3, §4, §5, §6

Chenopodium album [3] = assay: Herbicidal activity, preemergence test; conditions: pre; sprayed onto soil, 800 g of active material per hectare; evaluated 3 weeks after treatment
Protocol: as §1, §2, §3, §4, §5, §6

Lamium purpureum [4] = assay: Herbicidal activity, preemergence test; conditions: pre; sprayed onto soil, 800 g of active material per hectare; evaluated 3 weeks after treatment
Protocol: as §1, §2, §3, §4, §5, §6

Zea mays [5] = assay: Herbicidal activity, preemergence test; conditions: pre; sprayed onto soil, 800 g of active material per hectare; evaluated 3 weeks after treatment
Protocol: as §1, §2, §3, §4, §5, §6

Gossypium hirsutum [6] = assay: Herbicidal activity, preemergence test; conditions: pre; sprayed onto soil, 800 g of active material per hectare; evaluated 3 weeks after treatment
Protocol: as §1, §2, §3, §4, §5, §6

Alopecurus myosuroides [7] = assay: Herbicidal activity, preemergence test; conditions: pre; sprayed onto soil, 800 g of active material per hectare; evaluated 3 weeks after treatment
Protocol: as §1, §2, §3, §4, §5, §6

Veronica persica [8] = assay: Herbicidal activity, preemergence test; conditions: pre; sprayed onto soil, 800 g of active material per hectare; evaluated 3 weeks after treatment
Protocol: as §1, §2, §3, §4, §5, §6

Setaria viridis [9] = assay: Herbicidal activity, preemergence test; conditions: pre; sprayed onto soil, 800 g of active material per hectare; evaluated 3 weeks after treatment
Protocol: as §1, §2, §3, §4, §5, §6

Galium aparine [10] = assay: Herbicidal activity, preemergence test; conditions: pre; sprayed onto soil, 800 g of active material per hectare; evaluated 3 weeks after treatment
Protocol: as §1, §2, §3, §4, §5, §6

Hordeum vulgare [11] = assay: Herbicidal activity, preemergence test; conditions: pre; sprayed onto soil, 800 g of active material per hectare; evaluated 3 weeks after treatment
Protocol: as §1, §2, §3, §4, §5, §6

Ipomoea hederacea [12] = assay: Herbicidal activity, preemergence test; conditions: pre; sprayed onto soil, 800 g of active material per hectare; evaluated 3 weeks after treatment
Protocol: as §1, §2, §3, §4, §5, §6

Abutilon theophrasti [13] = assay: Herbicidal activity, preemergence test; conditions: pre; sprayed onto soil, 800 g of active material per hectare; evaluated 3 weeks after treatment
Protocol: as §1, §2, §3, §4, §5, §6

Stellaria media [14] = assay: Herbicidal activity, preemergence test; conditions: pre; sprayed onto soil, 800 g of active material per hectare; evaluated 3 weeks after treatment
Protocol: as §1, §2, §3, §4, §5, §6

Glycine max [15] = assay: Herbicidal activity, preemergence test; conditions: pre; sprayed onto soil, 800 g of active material per hectare; evaluated 3 weeks after treatment
Protocol: as §1, §2, §3, §4, §5, §6

Matricaria inodora [16] = assay: Herbicidal activity, preemergence test; conditions: pre; sprayed onto soil, 800 g of active material per hectare; evaluated 3 weeks after treatment
Protocol: as §1, §2, §3, §4, §5, §6

Papaver rhoeas [17] = assay: Herbicidal activity, preemergence test; conditions: pre; sprayed onto soil, 800 g of active material per hectare; evaluated 3 weeks after treatment
Protocol: as §1, §2, §3, §4, §5, §6

Amaranthus retroflexus [18] = assay: Herbicidal activity, preemergence test; conditions: pre; sprayed onto soil, 800 g of active material per hectare; evaluated 3 weeks after treatment
Protocol: as §1, §2, §3, §4, §5, §6

Ambrosia artemisifolia [19] = assay: Herbicidal activity, postemergence test; conditions: post; sprayed onto seedling plants, 800 g of active material per hectare; evaluated 2 weeks after treatment
Protocol: as §1, §2, §3, §4, §5, §6

Triticum aestivum [20] = assay: Herbicidal activity, postemergence test; conditions: post; sprayed onto seedling plants, 800 g of active material per hectare; evaluated 2 weeks after treatment
Protocol: as §1, §2, §3, §4, §5, §6

Chenopodium album [21] = assay: Herbicidal activity, postemergence test; conditions: post; sprayed onto seedling plants, 800 g of active material per hectare; evaluated 2 weeks after treatment
Protocol: as §1, §2, §3, §4, §5, §6

Lamium purpureum [22] = assay: Herbicidal activity, postemergence test; conditions: post; sprayed onto seedling plants, 800 g of active material per hectare; evaluated 2 weeks after treatment
Protocol: as §1, §2, §3, §4, §5, §6

Zea mays [23] = assay: Herbicidal activity, postemergence test; conditions: post; sprayed onto seedling plants, 800 g of active material per hectare; evaluated 2 weeks after treatment
Protocol: as §1, §2, §3, §4, §5, §6

Gossypium hirsutum [24] = assay: Herbicidal activity, postemergence test; conditions: post; sprayed onto seedling plants, 800 g of active material per hectare; evaluated 2 weeks after treatment
Protocol: as §1, §2, §3, §4, §5, §6

Alopecurus myosuroides [25] = assay: Herbicidal activity, postemergence test; conditions: post; sprayed onto seedling plants, 800 g of active material per hectare; evaluated 2 weeks after treatment
Protocol: as §1, §2, §3, §4, §5, §6

Veronica persica [26] = assay: Herbicidal activity, postemergence test; conditions: post; sprayed onto seedling plants, 800 g of active material per hectare; evaluated 2 weeks after treatment
Protocol: as §1, §2, §3, §4, §5, §6

Setaria viridis [27] = assay: Herbicidal activity, postemergence test; conditions: post; sprayed onto seedling plants, 800 g of active material per hectare; evaluated 2 weeks after treatment
Protocol: as §1, §2, §3, §4, §5, §6

Galium aparine [28] = assay: Herbicidal activity, postemergence test; conditions: post; sprayed onto seedling plants, 800 g of active material per hectare; evaluated 2 weeks after treatment
Protocol: as §1, §2, §3, §4, §5, §6

Hordeum vulgare [29] = assay: Herbicidal activity, postemergence test; conditions: post; sprayed onto seedling plants, 800 g of active material per hectare; evaluated 2 weeks after treatment
Protocol: as §1, §2, §3, §4, §5, §6

Ipomoea hederacea [30] = assay: Herbicidal activity, postemergence test; conditions: post; sprayed onto seedling plants, 800 g of active material per hectare; evaluated 2 weeks after treatment
Protocol: as §1, §2, §3, §4, §5, §6

Abutilon theophrasti [31] = assay: Herbicidal activity, postemergence test; conditions: post; sprayed onto seedling plants, 800 g of active material per hectare; evaluated 2 weeks after treatment
Protocol: as §1, §2, §3, §4, §5, §6

Stellaria media [32] = assay: Herbicidal activity, postemergence test; conditions: post; sprayed onto seedling plants, 800 g of active material per hectare; evaluated 2 weeks after treatment
Protocol: as §1, §2, §3, §4, §5, §6

Glycine max [33] = assay: Herbicidal activity, postemergence test; conditions: post; sprayed onto seedling plants, 800 g of active material per hectare; evaluated 2 weeks after treatment
Protocol: as §1, §2, §3, §4, §5, §6

Matricaria inodora [34] = assay: Herbicidal activity, postemergence test; conditions: post; sprayed onto seedling plants, 800 g of active material per hectare; evaluated 2 weeks after treatment
Protocol: as §1, §2, §3, §4, §5, §6

Papaver rhoeas [35] = assay: Herbicidal activity, postemergence test; conditions: post; sprayed onto seedling plants, 800 g of active material per hectare; evaluated 2 weeks after treatment
Protocol: as §1, §2, §3, §4, §5, §6

Amaranthus retroflexus [36] = assay: Herbicidal activity, postemergence test; conditions: post; sprayed onto seedling plants, 800 g of active material per hectare; evaluated 2 weeks after treatment
Protocol: as §1, §2, §3, §4, §5, §6

| SMILES | AMBEL control rating (0-9) (Ambrosia artemisifolia [1]) | TRZAW control rating (0-9) (Triticum aestivum [2]) | CHEAL control rating (0-9) (Chenopodium album [3]) | LAMPU control rating (0-9) (Lamium purpureum [4]) | ZEAMX control rating (0-9) (Zea mays [5]) | GOSHI control rating (0-9) (Gossypium hirsutum [6]) | ALOMY control rating (0-9) (Alopecurus myosuroides [7]) | VERPE control rating (0-9) (Veronica persica [8]) | SETVI control rating (0-9) (Setaria viridis [9]) | GALAP control rating (0-9) (Galium aparine [10]) | HORVW control rating (0-9) (Hordeum vulgare [11]) | IPOHE control rating (0-9) (Ipomoea hederacea [12]) | ABUTH control rating (0-9) (Abutilon theophrasti [13]) | STEME control rating (0-9) (Stellaria media [14]) | GLXMA control rating (0-9) (Glycine max [15]) | MATIN control rating (0-9) (Matricaria inodora [16]) | PAPRH control rating (0-9) (Papaver rhoeas [17]) | AMARE control rating (0-9) (Amaranthus retroflexus [18]) | AMBEL control rating (0-9) (Ambrosia artemisifolia [19]) | TRZAW control rating (0-9) (Triticum aestivum [20]) | also measured |
| --- | --- | --- | --- | --- | --- | --- | --- | --- | --- | --- | --- | --- | --- | --- | --- | --- | --- | --- | --- | --- | --- |
| C[C@H](NC(=O)c1nnc(-c2ccc(Cl)cc2)o1)c1ccccc1 [Example 12] | 0 (no effect) | 0 (no effect) | 8 (approaching complete kill) | 8 (approaching complete kill) | 0 (no effect) | 0 (no effect) | 1 (trace effect) | 9 (complete kill) | 9 (complete kill) | 0 (no effect) | 0 (no effect) | 0 (no effect) | 2 (slight effect) | 9 (complete kill) | 0 (no effect) | 7 (good herbicidal effect) | 9 (complete kill) | 8 (approaching complete kill) | 7 (good herbicidal effect) | 2 (slight effect) | CHEAL control rating (0-9) (Chenopodium album [21]): 9 (complete kill); LAMPU control rating (0-9) (Lamium purpureum [22]): 9 (complete kill); ZEAMX control rating (0-9) (Zea mays [23]): 3 (moderate effect); GOSHI control rating (0-9) (Gossypium hirsutum [24]): 9 (complete kill); ALOMY control rating (0-9) (Alopecurus myosuroides [25]): 3 (moderate effect); VERPE control rating (0-9) (Veronica persica [26]): 9 (complete kill); SETVI control rating (0-9) (Setaria viridis [27]): 9 (complete kill); GALAP control rating (0-9) (Galium aparine [28]): 6 (herbicidal effect); HORVW control rating (0-9) (Hordeum vulgare [29]): 4 (injury); IPOHE control rating (0-9) (Ipomoea hederacea [30]): 9 (complete kill); ABUTH control rating (0-9) (Abutilon theophrasti [31]): 9 (complete kill); STEME control rating (0-9) (Stellaria media [32]): 9 (complete kill); GLXMA control rating (0-9) (Glycine max [33]): 5 (definite injury); MATIN control rating (0-9) (Matricaria inodora [34]): 5 (definite injury); PAPRH control rating (0-9) (Papaver rhoeas [35]): 9 (complete kill); AMARE control rating (0-9) (Amaranthus retroflexus [36]): 9 (complete kill) |
| C[C@H](NC(=O)c1nnc(-c2ccc(C(C)(C)C)cc2)o1)c1ccccc1 [Example 16] | 3 (moderate effect) | 0 (no effect) | 7 (good herbicidal effect) | 8 (approaching complete kill) | 0 (no effect) | 0 (no effect) | 0 (no effect) | 9 (complete kill) | 8 (approaching complete kill) | 0 (no effect) | 0 (no effect) | 1 (trace effect) | 1 (trace effect) | 6 (herbicidal effect) | 0 (no effect) | 9 (complete kill) | 9 (complete kill) | 9 (complete kill) | 8 (approaching complete kill) | 2 (slight effect) | CHEAL control rating (0-9) (Chenopodium album [21]): 7 (good herbicidal effect); LAMPU control rating (0-9) (Lamium purpureum [22]): 9 (complete kill); ZEAMX control rating (0-9) (Zea mays [23]): 3 (moderate effect); GOSHI control rating (0-9) (Gossypium hirsutum [24]): 9 (complete kill); ALOMY control rating (0-9) (Alopecurus myosuroides [25]): 3 (moderate effect); VERPE control rating (0-9) (Veronica persica [26]): 9 (complete kill); SETVI control rating (0-9) (Setaria viridis [27]): 9 (complete kill); GALAP control rating (0-9) (Galium aparine [28]): 7 (good herbicidal effect); HORVW control rating (0-9) (Hordeum vulgare [29]): 4 (injury); IPOHE control rating (0-9) (Ipomoea hederacea [30]): 8 (approaching complete kill); ABUTH control rating (0-9) (Abutilon theophrasti [31]): 8 (approaching complete kill); STEME control rating (0-9) (Stellaria media [32]): 9 (complete kill); GLXMA control rating (0-9) (Glycine max [33]): 4 (injury); MATIN control rating (0-9) (Matricaria inodora [34]): 9 (complete kill); PAPRH control rating (0-9) (Papaver rhoeas [35]): 7 (good herbicidal effect); AMARE control rating (0-9) (Amaranthus retroflexus [36]): 9 (complete kill) |
